Laboratory results taken from article PMC4170105 (Journal of nuclear medicine : official publication, Society …, 2013).
Where two headings read alike, the source gives them in different places.

Key:
[1] = cited from earlier work
[2] = target: T1, S1Rs (Rattus norvegicus, UniProt Q9R0C9); experiment: Ex vivo autoradiography of rat brain and muscle sections; format: in vivo; conditions: baseline
[3] = Stability in human liver microsomes; format: in vitro ADME; conditions: errors SEM
[4] = monkey plasma
[5] = Ex vivo stability in rat plasma and brain homogenates
[6] = system: S1Rs
[7] = Ex vivo biodistribution in rats; conditions: rat
[8] = mouse liver microsomes; errors SEM; previously reported; cited from earlier work
[9] = target: S1Rs; conditions: cited from earlier work
[10] = target: T1, S1Rs; experiment: Rat brain PET/CT imaging, baseline and BD1047 blocking; format: in vivo; conditions: BD1047 1 mg/kg i.v. 10 min before tracer; 50–60 min after injection
[11] = system: S2Rs; conditions: no reference given, cited from earlier work
[12] = system: 5-HT2 receptors; conditions: no reference given; cited from earlier work
[13] = target: T1, S1Rs; experiment: Blocking biodistribution in rats pretreated with S1R ligands; format: in vivo; conditions: pretreatment 1 mg/kg
[14] = 5 min after injection, i.v., n = 4

T1 sequence (Q9R0C9 whole entry): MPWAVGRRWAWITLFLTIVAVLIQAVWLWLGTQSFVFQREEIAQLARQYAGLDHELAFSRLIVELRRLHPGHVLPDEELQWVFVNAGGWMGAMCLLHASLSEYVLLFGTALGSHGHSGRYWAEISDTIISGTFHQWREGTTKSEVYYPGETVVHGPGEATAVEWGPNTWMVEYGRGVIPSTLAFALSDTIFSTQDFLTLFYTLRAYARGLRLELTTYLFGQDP

For `COc1ccc(CCN2CCN(CCCc3ccccc3)CC2)cc1OC` [^11C-SA4503], the “unchanged radioligand in monkey plasma” value ([1]; 90 min after injection) is given as 31%.

In the case of `O=c1sc2cc(CCC[18F])ccc2n1CCN1CCCCCC1` [^18F-FTC-146], the “uptake in corpus callosum and muscle (autoradiography)” value [2] is reported as “little, if any, uptake”, the t1/2 [3] is reported as 18.2 ± 3.6 min and the “intact ^18F-FTC-146 in plasma” value ([4]; 5 min) is reported as 60%. The “intact ^18F-FTC-146 in plasma” value ([4]; 15 min) was 35%, the “intact parent tracer in plasma (lower plateau)” value ([4]; between 50 and 110 min) was 15% and the “percentage intact radiotracer in plasma” value ([5]; 15 min after injection) was 27.1% ± 5.3%. The “percentage intact radiotracer in plasma” value ([5]; 30 min after injection) was 25.3% ± 1.3%, the “percentage intact radiotracer in plasma” value ([5]; 60 min after injection) was 19.5% ± 4.4% and the “average maximum uptake in all analyzed brain regions” value ([6]; monkey, in vivo, 0.25 h) was “approximately 0.4 %ID/g”. The uptake in cerebellum ([6]; monkey, in vivo, 1 h) was 0.27 %ID/g, the “uptake in occipital cortex” value ([6]; monkey, in vivo, 1 h) was 0.27 %ID/g and the uptake in striatum ([6]; monkey, in vivo, 1 h) was 0.20 %ID/g. For the same molecule, the “brain uptake level after gradual washout” value ([6]; monkey, in vivo, 2 h) was “approximately 0.25 %ID/g”, the “time of peak uptake in the brain” value [7] was 15 min and the uptake in kidney [7, 14] was 2.14 ± 0.29 %ID/g. For the same molecule, the uptake in lung [7, 14] was 4.91 ± 0.63 %ID/g, the uptake in pancreas [7, 14] was 1.58 ± 0.21 %ID/g and the uptake in spleen [7, 14] was 1.34 ± 0.35 %ID/g. For the same molecule, the “decrease of accumulation in the lungs” value ([7]; from 5 to 60 min after injection) was 75%, the “uptake in blood and muscle” value ([7]; throughout the duration of the study) was “Negligible uptake” and the “washout of radiotracer uptake in pancreas, liver, and spleen” value ([7]; throughout the study (5-60 min)) was “did not significantly wash out”. The t1/2 [8] was 4.2 ± 0.6 min.

For `O=c1sc2cc(CCCF)ccc2n1CCN1CCCCCC1` [^18F-FTC-146], the Ki ([9]; read-out: affinity for S1Rs, in vitro binding) is listed as 0.0025 nM.

In the case of `CN(C)CCN(C)CCc1ccc(Cl)c(Cl)c1` [BD1047], the “reduction in ^18F-FTC-146 accumulation in rat brain (PET/CT)” value [10] is given as 86%, the “fold lower affinity for S2Rs than for S1Rs” value [11] is given as “approximately 50 fold” and the Ki ([11]; read-out: Ki for S2Rs) is given as 47 nM. For the same molecule, the “affinity for 5-HT2 receptors” value [12] was “low micromolar affinity”, the Ki ([9]; read-out: Ki for S1Rs, no reference given) was 0.93 nM and the “radioactive signal in bone/skull of pretreated rats compared with baseline rats” value ([13]; 60 min after injection) was “did not display this same trend”. For the same molecule, the “reduction in radiotracer binding in liver, pancreas, and heart” value ([13]; P < 0.05, < 0.05, < 0.005) was “significant reduction”.

With `O=C(CCCN1CCC(O)(c2ccc(Cl)cc2)CC1)c1ccc(F)cc1` [haloperidol, reference compound] the “decrease of ^18F-FTC-146 binding in occipital cortex” value ([6]; haloperidol 0.1 mg/kg 10 min before radioligand, 60–75 min after injection) was 53%.

`O=c1sc2cc(CCCF)ccc2n1CCN1CCCCCC1` [FTC-146] gave a t1/2 [3] of 18.2 min.

For `COc1cc(CCN2CCN(CCCc3ccccc3)CC2)ccc1OCC[18F]` [^18F-FE-SA4503], the “parent compound present in monkey plasma” value ([1]; 120 min after injection of tracer) is listed as 23%.
